Several values for one entry are separate records, joined by “and”; a condition that tells them apart may be missing. Equal entries are not always repeated.

The experiment concerns 521955-158-R6-J3-PDC complex spheroid growth, % test/control. Description: Anticancer human tumor 521955-158-R6-J3-PDC patient-derived pancreatic carcinoma cell line growth inhibition [Asc]. The following applies: for viability, T/C: stronger effect = lower value. As to the method:
Multicellular complex tumor spheroid response to apoptosis pathway targeting inhibitors Alrizomadlin, Pelcitoclax, and Dasminapant in combination with a variety of drugs and investigational agents in selected tumor cell lines
The MDM2 inhibitor alrizomadlin, the Bcl-2/Bcl-xL inhibitor pelcitoclax, and the IAPs inhibitor dasminapant were evaluated both individually and in combination with standard of care and investigational anticancer small molecules within a complex spheroid model of solid tumors. . Complex spheroids include a stromal component modeled by human endothelial cells (HUVEC) and fibroblasts modeled by human mesenchymal stem cells (MSCs). The concentration ranges selected for each drug and investigational agent were based upon clinically achievable concentrations if the clinical Cmax of the agent was known.
Compounds. The drugs and investigational agents: alrizomadlin (APG-115; NSC831270), pelcitoclax (APG-1252; NSC835773), dasminapant (APG-1387;NSC834197), TAK-243 (NSC785004), copanlisib (NSC809693), olaparib (NSC753686), talazoparib (NSC767125), cobimetinib (NSC 768068), eltanexor (KPT-8602, NSC 794443), abemaciclib (NSC 768073), sotorasib (NSC818433), adagrasib (NSC 831453), MRTX-1133 (NSC 836407), Iadademestat (ORY1001, NSC 806812), and RMC-4630 (NSC839698), were obtained from the NCI Developmental Therapeutics Program Chemical Repository. The FDA-approved anticancer drug set is available from the Developmental Therapeutics Program at https://dtp.cancer.gov/organization/dscb/obtaining/available plates.htm. […] The stock solutions were prepared in dimethyl sulfoxide (DMSO, Sigma-Aldrich, St. Louis, MO, cat. D2650) at 800-fold the tested concentration and stored at -70 degrees C prior to their use. All drugs and investigational agents were tested over a range starting from a high concentration at or near the clinical Cmax and decreasing in half-log increments. If the clinical Cmax for an agent had not been determined, the highest concentration tested was 10 microM.
The patient-derived cancer (PDC) cell lines include five colon adenocarcinomas: 186277-243-T-J2-PDC, 616215-338-R-J1-PDC, 439559-082-T-J2-PDC, 463943-066-T-J2-PDC, and 519858-162-T-J1-PDC; three pancreatic carcinomas: 323965-272-R-J2-PDC, 521955-158-R6-J3-PDC, and 521955-158-R2-J5-PDC; two uterine sarcomas: 327498-152-R-J2-PDC and 993429-296-R-J1-PDC; two rhabdomyosarcomas: 755483-174-R-J1-PDC and 772245-204-R-J1-PDC; two soft tissue sarcomas: 126254-015-R-J1-PDC and 494315-158-R-J1-PDC; two malignant fibrous histiocytomas: 317291-083-R-J1-PDC and 596521-263-R-J1-PDC; two breast carcinomas: 171881-019-R-J1-PDC and 885512-296-R-J2-PDC; and one ovarian carcinoma: 6556581-035-R-J-PDC were obtained from the NCI PDMR, (https://pdmr.cancer.gov). The established cell lines HSSY-2 synovial sarcoma (RRID:CVCL 8719), SYO-1 synovial sarcoma (RRID:CVCL_7146), MPNST malignant peripheral neural sheath tumor were obtained from the Sloan Kettering Institute. The following established cell lines were purchased from the American Type Culture Collection (ATCC, Manassas, VA), Sor the received from the NCI repository:, PANC-1 pancreatic carcinoma (CRL-1469, RRID:CVCL_0480), OVCAR-5 ovarian carcinoma (RRID:CVCL_1628), OVCAR-8 ovarian carcinoma (RRID:CVCL_1629), , MCF-7 breast carcinoma (CRL-12584, RRID:CVCL_0031), MDA-MB-231 breast carcinoma (CRL-12532, RRID:CVCL_0062), NCI-H1876 small cell lung carcinoma (CRL-5902, RRID:CVCL_1503), NCI-H510A small cell lung carcinoma (HTB-184, RRID:CVCL_1565), NCI-H1417 (CRL-5869, RRID:CVCL_1469), and NCI-H196 small cell lung carcinoma (CRL-5823, RRID:CVCL_1509). Dr. Peter Houghton (Greehey Children's Cancer Research Institute, University of Texas Health Science Center, San Antonio, TX) provided Rh-18 rhabdomyosarcoma (RRID:CVCL_1659). Pooled donor human umbilical vein endothelial cells (HUVEC, Lonza, cat. CC-2519) and human mesenchymal stem cells (hMSC, Lonza, cat. PT-2501) were purchased from Lonza (Walkersville, MD).
Cell Culture. […]
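Note: spheroids exposed to compounds for 7 days.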
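Throughout, for viability, T/C: 100% = DMSO vehicle control wells.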

As to `Cc1c(S(C)(=O)=O)c(-c2cc(F)cc(N3CCN(c4ccc(NS(=O)(=O)c5ccc(NC(CCN6CCC(C(=O)OCCCP(=O)(O)O)CC6)CSc6ccccc6)c(S(=O)(=O)C(F)(F)F)c5)cc4)CC3)c2)c(-c2ccc(Cl)cc2)n1C(C)C` (stereo unspecified), the viability, T/C (in general, the ratio of treated to control) is 77.2% [middle of 7 runs] (compound 0.0316 µM); 71.5% [middle of 7 runs] (compound 0.1 µM); 54% [middle of 7 runs] (compound 0.316 µM); 37.2% [middle of 7 runs] (compound 1 µM); 23.6% [middle of 7 runs] (compound 3.16 µM); 18.2% [middle of 7 runs] (compound 10 µM). Further, the IC50 (commonly the midpoint of a concentration-inhibition curve) (compound alone, run of 11/07/2022) is 412 nM [middle of 7 runs].

For `C#Cc1c(F)ccc2cc(O)cc(-c3ncc4c(N5CC6CCC(C5)N6)nc(OCC56CCCN5CC(F)C6)nc4c3F)c12` (stereo unspecified) + CNC(C)C(=O)NC1CN(S(=O)(=O)c2cccc(S(=O)(=O)N3CCC4CCC(C(=O)NC(c5ccccc5)c5ccccc5)N4C(=O)C(NC(=O)C(C)NC)C3)c2)CCC2CCC(C(=O)NC(c3ccccc3)c3ccccc3)N2C1=O, the half-maximal inhibitory concentration (IC50) is, setting by setting: (curve of first compound, second compound 0.00316 µM) 115 nM; (curve of first compound, second compound 0.01 µM) 63 nM; (curve of first compound, second compound 0.0316 µM) 55.9 nM; (curve of first compound, second compound 0.1 µM) 70.3 nM; (curve of first compound, second compound 0.316 µM) 42 nM; (curve of first compound, second compound 1 µM) < 31.6 nM. The viability, T/C was 57.4% (second compound 0.00316 µM, first compound 0.0316 µM); 45.8% (second compound 0.00316 µM, first compound 0.1 µM); 46.8% (second compound 0.00316 µM, first compound 0.316 µM); 38.4% (second compound 0.00316 µM, first compound 1 µM); 36.3% (second compound 0.00316 µM, first compound 3.16 µM); 21.4% (second compound 0.00316 µM, first compound 10 µM). In addition, the viability, T/C is 56.6% (second compound 0.01 µM, first compound 0.0316 µM); 44.7% (second compound 0.01 µM, first compound 0.1 µM); 38.4% (second compound 0.01 µM, first compound 0.316 µM); 34.7% (second compound 0.01 µM, first compound 1 µM); 37% (second compound 0.01 µM, first compound 3.16 µM); 25.1% (second compound 0.01 µM, first compound 10 µM). Moreover, the viability, T/C (second compound 0.0316 µM, first compound 0.0316 µM) was 54.9%; the viability, T/C (second compound 0.0316 µM, first compound 0.1 µM) was 42.8%; the viability, T/C (second compound 0.0316 µM, first compound 0.316 µM) was 42%; the viability, T/C (second compound 0.0316 µM, first compound 1 µM) is 33.1%; the viability, T/C (second compound 0.0316 µM, first compound 3.16 µM) is 25.6%; the viability, T/C (second compound 0.0316 µM, first compound 10 µM) is 24.9%. Also, the viability, T/C is, setting by setting: (second compound 0.1 µM, first compound 0.0316 µM) 56.5%; (second compound 0.1 µM, first compound 0.1 µM) 46%; (second compound 0.1 µM, first compound 0.316 µM) 38.7%; (second compound 0.1 µM, first compound 1 µM) 38.7%; (second compound 0.1 µM, first compound 3.16 µM) 33.6%; (second compound 0.1 µM, first compound 10 µM) 24.8%. Besides, the viability, T/C runs as follows: (second compound 0.316 µM, first compound 0.0316 µM) 54.4%; (second compound 0.316 µM, first compound 0.1 µM) 37%; (second compound 0.316 µM, first compound 0.316 µM) 33.1%; (second compound 0.316 µM, first compound 1 µM) 29.7%; (second compound 0.316 µM, first compound 3.16 µM) 33.6%; (second compound 0.316 µM, first compound 10 µM) 18.3%. In addition, the viability, T/C is 44.9% (second compound 1 µM, first compound 0.0316 µM); 41.7% (second compound 1 µM, first compound 0.1 µM); 43.5% (second compound 1 µM, first compound 0.316 µM); 30.7% (second compound 1 µM, first compound 1 µM); 30.4% (second compound 1 µM, first compound 3.16 µM); 21.9% (second compound 1 µM, first compound 10 µM).

Turning to `CCN1CCN(Cc2ccc(Nc3ncc(F)c(-c4cc(F)c5nc(C)n(C(C)C)c5c4)n3)nc2)CC1`, the viability, T/C is 88.9% and 113% and 94.9% (compound 0.00316 µM); 105% and 115% and 102% (compound 0.01 µM); 77.9% and 87.5% and 87.9% (compound 0.0316 µM); 86.7% and 105% and 94.8% (compound 0.1 µM); 85.5% and 74.2% and 83.4% (compound 0.316 µM); 87.4% and 96.5% and 91.6% (compound 1 µM). Also, under “curve of compound”, the IC50 is > 1000 nM.
